The source of these data is US20230234942A1, “COMPOUNDS FOR TREATING HUNTINGTON'S DISEASE” (PTC Therapeutics, Inc., priority 2020, published 2023).

The assay concerns Endogenous Huntingtin Protein. Put plainly: Endogenous Huntingtin Protein Assay (ELISA-based MSD electrochemiluminescence). In kind it is cell-based. To be noted: Table 2; MSD plates coated with MW1 (expanded polyglutamine) or MAB2166 capture antibody; "inactive" = result above the detection limit of the assay. In outline: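 MSD electrochemiluminescence sandwich ELISA: capture with MW1 (expanded polyQ) or MAB2166 at 1 µg/mL, samples incubated overnight at 4 °C. Detection by rabbit mAb #56565 then SULFO-TAG anti-rabbit antibody, each 0.25 µg/mL for 1 h at room temperature, read in buffer T on SI 6000 imager.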
With `CC(C)[C@@H]1CN(c2ncc(-c3ccc(-c4cn[nH]c4F)cc3O)nn2)C[C@H](C)N1` [Cpd 217, 5-(5-fluoro-1H-pyrazol-4-yl)-2-{3-[(3S,5R)-3-methyl-5-(propan-2-yl)piperazin-1-yl]-1,2,4-triazin-6-yl]phenol], the IC50 was determined as 67.9 nM. `Cc1cn2cc(-c3cnc(-c4cnc(N5CCN(C)CC5)nn4)c(O)c3)cc(C)c2n1` [Cpd 126, 5-(2,8-dimethylimidazo[1,2-a]pyridin-6-yl)-2-[3-(4-methylpiperazin-1-yl)-1,2,4-triazin-6-yl]pyridin-3-ol] registered an IC50 of 100 nM. As to `Cc1cn2nc(-c3ccc(-c4cnc(N5C[C@@H](C)N[C@@H](C)C5)nn4)c(O)c3)ccc2n1` [Cpd 75, 2-{3-[(3R,5S)-3,5-dimethylpiperazin-1-yl]-1,2,4-triazin-6-yl}-5-(2-methylimidazo[1,2-b]pyridazin-6-yl)phenol], the IC50 turned out to be 4.3 nM. This IC50 is about 23-fold lower than that of the molecule before. To `Cc1ccc2c(cnn2-c2ccc(-c3cnc(N4CCN[C@@H](C(C)C)C4)nn3)c(O)c2)n1` [Cpd 155, 5-(5-methyl-1H-pyrazolo[4,3-b]pyridin-1-yl)-2-{3-[(3S)-3-(propan-2-yl)piperazin-1-yl]-1,2,4-triazin-6-yl}phenol] belongs 19.5 nM; to `CC[C@H]1CN(c2ncc(-c3ccc(-c4cn[nH]c4F)cc3O)nn2)C[C@@H](C)N1` [Cpd 223, 2-{3-[(3S,5R)-3-ethyl-5-methylpiperazin-1-yl]-1,2,4-triazin-6-yl]-5-(5-fluoro-1H-pyrazol-4-yl)phenol], 7 nM; to `CC(C)[C@H]1CN(c2ncc(-c3ccc(-c4ccc5nccn5n4)cc3O)nn2)CCN1` [Cpd 102, 5-(imidazo[1,2-b]pyridazin-6-yl)-2-{3-[(3S)-3-(propan-2-yl)piperazin-1-yl]-1,2,4-triazin-6-yl}phenol], 13.4 nM. To `C[C@@H]1CN(c2ncc(-c3ccc(-c4cnc5nn(C)nc5c4)cc3O)nn2)C[C@H](C)N1` [Cpd 197, 2-{3-[(3R,5S)-3,5-dimethylpiperazin-1-yl]-1,2,4-triazin-6-yl}-5-(2-methyl-2H-[1,2,3]triazolo[4,5-b]pyridin-6-yl)phenol] belongs 11.6 nM; to `[2H]C([2H])([2H])n1cc(-c2ccc(-c3cnc(N4C[C@@H](C)N(C)[C@@H](C)C4)nn3)c(O)c2)cn1` [Cpd 51, 5-[1-(^2H3)methyl-1H-pyrazol-4-yl]-2-{3-[(3R,5S)-3,4,5-trimethylpiperazin-1-yl]-1,2,4-triazin-6-yl}phenol], 330 nM; to `CCN1CCN(c2ncc(-c3ccc(-c4cc(F)c5nc(C)cn5c4)cc3O)nn2)C[C@H]1C` [Cpd 89, 2-{3-[(3R)-4-ethyl-3-methylpiperazin-1-yl]-1,2,4-triazin-6-yl}-5-(8-fluoro-2-methylimidazo[1,2-a]pyridin-6-yl)phenol], 6.7 nM. The same measure for `[2H]C([2H])([2H])n1cc(-c2ccc(-c3cnc(N4CCNC(C(C)C)C4)nn3)c(O)c2)cn1` (stereo not drawn) [Cpd 41, 5-[1-(^2H3)methyl-1H-pyrazol-4-yl]-2-{3-[3-(propan-2-yl)piperazin-1-yl]-1,2,4-triazin-6-yl}phenol]: 110 nM. The molecule `CC(C)(C)[C@H]1CN(c2ncc(-c3ccc(-c4cn5ncnc5cn4)cc3O)nn2)CCN1` [Cpd 129, 2-{3-[(3S)-3-tert-butylpiperazin-1-yl]-1,2,4-triazin-6-yl}-5-([1,2,4]triazolo[1,5-a]pyrazin-6-yl)phenol] returned an IC50 of 18.6 nM. On to “4-fluoro-5-[1-(^2H3)methyl-1H-pyrazol-4-yl]-2-{3-[(3S)-3-(propan-2-yl)piperazin-1-yl]-1,2,4-triazin-6-yl}phenol [Cpd 152]”, for which the IC50 is 15 nM. To `CC1([C@H]2CN(c3ncc(-c4ccc(-c5cnn6c5CCC6)cc4O)nn3)CCN2)CC1` [Cpd 280, 5-(5,6-dihydro-4H-pyrrolo[1,2-b]pyrazol-3-yl)-2-{3-[(3S)-3-(1-methylcyclopropyl)piperazin-1-yl]-1,2,4-triazin-6-yl}phenol] belongs 4.5 nM; to `C[C@@H]1CN(c2ncc(-c3ccc(-c4cc(C#N)c5nn(C)cc5c4)cc3O)nn2)C[C@H](C)N1` [Cpd 80, 5-(4-{3-[(3R,5S)-3,5-dimethylpiperazin-1-yl]-1,2,4-triazin-6-yl}-3-hydroxyphenyl)-2-methyl-2H-indazole-7-carbonitrile], 5.3 nM. The same measure for `Cc1cnc(-c2ccc(-c3cnc(N4CCN[C@@H](C(C)C)C4)nn3)c(O)c2)cn1` [Cpd 145, 5-(5-methylpyrazin-2-yl)-2-{3-[(3S)-3-(propan-2-yl)piperazin-1-yl]-1,2,4-triazin-6-yl}phenol]: 480 nM. To `CC(C)C1CN(c2ncc(-c3ccc(-c4cn[nH]c4)cc3O)nn2)CCN1C` (stereo not drawn) [Cpd 34, 2-{3-[4-methyl-3-(propan-2-yl)piperazin-1-yl]-1,2,4-triazin-6-yl}-5-(1H-pyrazol-4-yl)phenol] belongs 42 nM; to `[2H]C([2H])([2H])Oc1cc(-c2ccc(-c3cnc(N4CCNC(C(C)(C)O)C4)nn3)c(O)c2)ncn1` (stereo not drawn) [Cpd 8, 2-{3-[3-(2-hydroxypropan-2-yl)piperazin-1-yl]-1,2,4-triazin-6-yl}-5-{6-[(^2H3)methyloxy]pyrimidin-4-yl}phenol], 8.7 nM; to `Cc1cc(-c2ccc(-c3cnc(N4CCNC(C(C)C)C4)nn3)c(O)c2)ncn1` (racemic) [Cpd 149, 5-(6-methylpyrimidin-4-yl)-2-{3-[(3RS)-3-(propan-2-yl)piperazin-1-yl]-1,2,4-triazin-6-yl}phenol], 90.7 nM. `C[C@@H]1CN(c2ncc(-c3ccc(-n4nccn4)cc3O)nn2)C[C@H](C2CCC2)N1` [Cpd 237, 2-{3-[(3S,5R)-3-cyclobutyl-5-methylpiperazin-1-yl]-1,2,4-triazin-6-yl}-5-(2H-1,2,3-triazol-2-yl)phenol]: the IC50 is 104 nM. The same measure for `Cc1cc(-c2ccc(-c3cnc(N4CCNC(C(C)C)C4)nn3)c(O)c2)ccn1` (stereo not drawn) [Cpd 44, 5-(2-methylpyridin-4-yl)-2-{3-[3-(propan-2-yl)piperazin-1-yl]-1,2,4-triazin-6-yl}phenol]: 138 nM. The same measure for `CCC1CN(c2ncc(-c3ccc(-c4cn[nH]c4)cc3O)nn2)CCN1` (stereo not drawn) [Cpd 24, 2-[3-(3-ethylpiperazin-1-yl)-1,2,4-triazin-6-yl]-5-(1H-pyrazol-4-yl)phenol]: 23.4 nM. The same measure for `COc1cc(-c2ccc(-c3cnc(N4CCN[C@@H](C(C)C)C4)nn3)c(O)c2)nn2nc(C)nc12` [Cpd 70, 5-(8-methoxy-2-methyl[1,2,4]triazolo[1,5-b]pyridazin-6-yl)-2-{3-[(3S)-3-(propan-2-yl)piperazin-1-yl]-1,2,4-triazin-6-yl}phenol]: 3.8 nM.

Molecule `Oc1cc(-c2cn[nH]c2)ccc1-c1cnc(N2CCNC3(CC3)C2)nn1` [Cpd 55, 2-[3-(4,7-diazaspiro[2.5]octan-7-yl)-1,2,4-triazin-6-yl]-5-(1H-pyrazol-4-yl)phenol] had an IC50 of 548 nM. The same measure for `CC(C)[C@H]1CN(c2ncc(-c3ccc(-n4ccnc4)cc3O)nn2)CCN1` [Cpd 142, 5-(1H-imidazol-1-yl)-2-{3-[(3S)-3-(propan-2-yl)piperazin-1-yl]-1,2,4-triazin-6-yl}phenol]: 60.3 nM; for `CC(C)[C@H]1CN(c2ncc(-c3ccc(-c4c[nH]nc4F)cc3O)nn2)CCN1` [Cpd 3, 5-(3-fluoro-1H-pyrazol-4-yl)-2-{3-[(3S)-3-(propan-2-yl)piperazin-1-yl]-1,2,4-triazin-6-yl}phenol]: 4.4 nM; for `CC1CN(c2ncc(-c3ccc(-c4cn[nH]c4)cc3O)nn2)CCN1` (stereo not drawn) [Cpd 42, 2-[3-(3-methylpiperazin-1-yl)-1,2,4-triazin-6-yl]-5-(1H-pyrazol-4-yl)phenol]: 111 nM. Take `Oc1cc(-c2cn[nH]c2)ccc1-c1cnc(N2CCNC3(CCCC3)C2)nn1` [Cpd 43, 2-[3-(6,9-diazaspiro[4.5]decan-9-yl)-1,2,4-triazin-6-yl]-5-(1H-pyrazol-4-yl)phenol]: the IC50 stood at 116 nM. In turn, `CC(C)[C@H]1CN(c2ncc(-c3ccc(-c4nc(Cl)cs4)cc3O)nn2)CCN1` [Cpd 188, 5-(4-chloro-1,3-thiazol-2-yl)-2-{3-[(3S)-3-(propan-2-yl)piperazin-1-yl]-1,2,4-triazin-6-yl}phenol] had an IC50 of 105 nM. The IC50 values of the last two molecules are within 1.5-fold of each other.

Take `C[C@@H]1CN(c2ncc(-c3ccc(-n4nccn4)cc3O)nn2)C[C@H](C)N1C` [Cpd 52, 5-(2H-1,2,3-triazol-2-yl)-2-{3-[(3R,5S)-3,4,5-trimethylpiperazin-1-yl]-1,2,4-triazin-6-yl}phenol]: the IC50 was determined as 336 nM. To `Cc1cnc(-c2ccc(-c3cnc(N4CCN[C@@H](C5CC5)C4)nn3)c(O)c2)o1` [Cpd 232, 2-{3-[(3S)-3-cyclopropylpiperazin-1-yl]-1,2,4-triazin-6-yl}-5-(5-methyl-1,3-oxazol-2-yl)phenol] belongs 147 nM.

By IC50 is commonly meant the concentration at which inhibition is half-maximal.
